Paper PMC2763579 (Journal of medicinal chemistry, 2009)
Entries after “also recorded” stand apart in the source; their conditions may differ.

Tested on: heat induced HSP70 expression in Jurkat cells
Experiment: Inhibition of heat-induced HSP70 expression, Western blot
Type: cell-based, human
Settings: pre-heat treatment 50 μg/ml

Structure (SMILES)	Inhibition of HSP70 induction (in words)
O=C(O)COc1cc(O)c2c(=O)c(O)c(-c3ccc(O)c(O)c3)oc2c1 [Compound D9]	does not inhibit HSP70; also recorded: showed no ability to inhibit HSP70 induction

Tested on: HSP27 phosphorylation at Ser78 in HeLa cells
Experiment: Drug-induced HSP27 Ser78 phosphorylation, Western blot
Type: cell-based, human
Settings: absence of heat shock, 50 μg/ml 1 h

Structure (SMILES)	Enhancement of HSP27 phosphorylation (in words)
COC(=O)COc1cc(O)c2c(=O)c(O)c(-c3ccc(O)c(O)c3)oc2c1 [Compound D10]	showed enhancement of HSP27 phosphorylation
COc1cc(-c2oc3cc(O)cc(O)c3c(=O)c2O)ccc1O [Compound D2]	did not activate HSP27 phosphorylation
COC(=O)COc1cc(-c2oc3cc(O)cc(O)c3c(=O)c2O)ccc1O [Compound D1]	did not activate HSP27 phosphorylation
O=c1c(O)c(-c2ccc(O)c(O)c2)oc2cc(O)cc(O)c12 [Quercetin, reference compound]	enhances HSP27 phosphorylation at Ser78
COc1cc(O)c2c(=O)c(O)c(-c3ccc(O)c(O)c3)oc2c1 [Compound D7]	showed enhancement of HSP27 phosphorylation
